Laboratory results from US20260028352A1, “MACROCYCLIC IMIDAZO [1,2-B] PYRIDAZINE DERIVATIVE, PREPARATION METHOD THEREFOR, AND USE THEREOF” (SUZHOU LANGRUI BIOPHARMACEUTICAL CO., LTD., priority 2022, published 2026).

Experiments:
TRKA^WT kinase = TRKA^WT kinase (Homo sapiens (Human), UniProt P04629); assay: Inhibitory activity against TRKA WT kinase (Caliper mobility shift); assay type: biochemical; conditions: in vitro kinase assay
Procedure: (§1) Kinase Assay Process: 1× Kinase buffer was prepared. […] The compounds were serially diluted into 10 concentrations ([…], 0.15, and 0.05 nM) using a Precision 3-fold dilution method. By using the Echo550 liquid handler, 250 nL of the 100-fold final concentration compound was transferred to an OptiPlate-384F plate. a 2.5× final concentration kinase solution was prepared using 1× Kinase buffer. 10 μL of the 2.5× final concentration kinase solution was added to the compound wells and the positive control wells, and 10 μL of 1× Kinase buffer was added to the negative control wells. The plate was centrifuged at 1000 rpm for 30 seconds, vortexed for mixing, and then incubated at room temperature for 10 minutes. A mixture of 5/3× final concentration of ATP and Kinase Substrate 22 was prepared using 1× Kinase buffer. 15 μL of the mixture of the 5/3× final concentration ATP and the substrate was added to initiate the reaction, the 384-well plate was centrifuged at 1000 rpm for 30 seconds, vortexed for mixing, and incubated at room temperature for the required time. 30 μL of the termination solution was added to stop the kinase reaction, the plate was centrifuged at 1000 rpm for 30 seconds, and vortexed for mixing. The conversion rate was measured using the Caliper EZ Reader.
(§2) Data Analysis: the inhibition rate was calculated as follows:
(§3) % Inhibition=(Conversion %_max−conversion %_sample)÷(Conversion %_max−conversion %_min)×100
(§4) Conversion %_sample is the conversion rate reading for the sample; Conversion %_min is the average value of the negative control wells, representing the conversion rate for wells without enzyme activity: Conversion %_max is the average value of the positive control wells, representing the conversion rate for wells without compound inhibition. A dose-response curve was fitted using the log concentration of the compound as the X-axis and the percentage inhibition as the Y-axis. The log(inhibitor) vs. response-variable slope of the GraphPad Prism 5 software was used to fit the dose-response curve, and the IC50 value for each compound was obtained. The calculation formula is:
(§5) Y=Bottom+(Top−Bottom)/(1+10^((Log IC50−X)*HillSlope)).
(§6) wherein X represents the concentration of the compound to be tested; Y represents the inhibition rate at the concentration X: Top refers to the maximum response: Bottom refers to the baseline response; HillSlope refers to the slope of the curve (i.e., the gradient).

TRKA^F589L kinase = TRKA^F589L kinase (Homo sapiens (Human), UniProt P04629, F589L); assay: Inhibitory activity against TRKA(F589L) kinase (Caliper mobility shift); assay type: biochemical; conditions: in vitro kinase assay
Sequence of TRKA^F589L kinase (P04629 33-796 F589L): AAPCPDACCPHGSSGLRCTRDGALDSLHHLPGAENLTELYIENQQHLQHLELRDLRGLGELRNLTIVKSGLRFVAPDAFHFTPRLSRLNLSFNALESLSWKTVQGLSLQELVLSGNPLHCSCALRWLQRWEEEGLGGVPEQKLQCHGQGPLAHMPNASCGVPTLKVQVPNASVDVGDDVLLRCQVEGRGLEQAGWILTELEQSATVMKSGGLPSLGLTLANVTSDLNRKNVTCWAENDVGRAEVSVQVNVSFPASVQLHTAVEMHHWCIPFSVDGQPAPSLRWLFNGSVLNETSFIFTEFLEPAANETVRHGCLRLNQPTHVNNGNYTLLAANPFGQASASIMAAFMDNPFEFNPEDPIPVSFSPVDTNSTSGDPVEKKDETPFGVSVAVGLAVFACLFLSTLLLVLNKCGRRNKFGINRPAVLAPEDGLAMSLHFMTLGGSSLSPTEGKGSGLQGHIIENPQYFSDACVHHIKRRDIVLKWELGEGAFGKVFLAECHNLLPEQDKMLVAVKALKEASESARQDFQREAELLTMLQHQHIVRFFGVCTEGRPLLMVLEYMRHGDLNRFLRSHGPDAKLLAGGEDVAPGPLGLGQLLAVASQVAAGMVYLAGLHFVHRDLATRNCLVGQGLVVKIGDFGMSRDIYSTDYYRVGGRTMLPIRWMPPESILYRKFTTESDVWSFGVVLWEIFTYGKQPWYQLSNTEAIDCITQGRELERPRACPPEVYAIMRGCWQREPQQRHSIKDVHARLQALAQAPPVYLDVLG
Procedure: as §1, §2, §3, §4, §5, §6

[1] = test system: Ba/F3-TPM3-NTRK1-G667C cells; assay: Growth inhibition of Ba/F3-TPM3-NTRK1-G667C cells (Cell Titer-Glo); assay type: cell-based; conditions: 72 hours, CTG; read-out: inhibitory activity IC50 Ba/F3-TPM3-NTRK1-G667C
In short: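 Ba/F3 cells were exposed for 72 hours to serially DMSO-diluted compound at a top final concentration of 10 μM. Viability was read by Cell Titer-Glo luminescence after the plate equilibrated 30 min at room temperature and was then shaken 1 hour in the dark at room temperature.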

[2] = test system: Ba/F3-TPM3-NTRK1-G595R cells; assay: Growth inhibition of Ba/F3-TPM3-NTRK1-G595R cells (Cell Titer-Glo); assay type: cell-based; conditions: 72 hours, CTG; read-out: inhibitory activity IC50 Ba/F3-TPM3-NTRK1-G595R
Procedure: (§7) Then the solutions were subjected to a gradient dilution with DMSO: a clean, sterile V-bottom 96-well microplate was placed in the biological safety cabinet. First, 4 μL of DMSO was added to well B2 and 10 μL of DMSO was added to wells B3-B11 respectively; Next, 6 μL of the 10 mM solution was added to well B2. The microplate was pipetted up and down 10 times for mixing. […] Mixing was performed by pipetting up and down 10 times. The solution was diluted in order until well B10. only DMSO was added to well B11 (no compound).
(§8) 6× Compound Solution Preparation (6-fold dilution, × represents dilution factor): (Initial final concentration: 10 μM), a clean, sterile V-bottom 96-well microplate was placed in the biological safety cabinet. 99 μL of cell culture medium was added to each well from B2 to G11. By using a 12-channel pipettor, 1 μL of the compound solution prepared in the previous step was added into the corresponding wells. The solutions were pipetted up and down 10 times to mix the solutions. The highest concentration of compound in this step was 60 μM.
(§9) Treatment of Cells: the above-prepared cell culture plate was taken out of the incubator. 20 μL of compound solution from each well was added to the corresponding cell culture wells. The lowest pipetting speed was used and touching the bottom of the plate was avoided. The culture plate was gently shaked to mix the compound solution, then the plate was returned to the incubator for further culture for 72 hours.
(§10) The highest treatment concentration of the compound was 10 μM. After 72 hours of treatment, the Cell Titer-Glo (CTG) assay was performed. First, the cell culture plate was removed from the CO2 incubator and allowed to stand at room temperature for 30 minutes to ensure uniform temperature of the plate. The pre-prepared Cell Titer-Glo reagent (following the manufacturer's instructions) was taken and allowed to stand at room temperature to thaw. 60 μL of Cell Titer-Glo reagent was added to each well containing cells. The cells were incubated on a horizontal shaker in a dark place at 225 rpm for 1 hour at room temperature. Then, a Tecan Spark microplate reader was used to read the plate using chemiluminescence according to the manufacturer's instructions.

[3] = test system: Ba/F3-TPM3-NTRK1-WT cells; assay: Growth inhibition of Ba/F3-TPM3-NTRK1-WT cells (Cell Titer-Glo); assay type: cell-based; conditions: 72 hours, CTG; read-out: inhibitory activity IC50 Ba/F3-TPM3-NTRK1-WT
Procedure: as §7, §8, §9, §10

Sequence of TRKA^WT kinase (P04629 33-796): as the sequence (P04629 33-796 F589L) above, with L557F counted along it

| Compound | IC50 (TRKA^WT kinase) [nM] | IC50 (TRKA^F589L kinase) [nM] | IC50 [1] [nM] | IC50 [2] [nM] | IC50 [3] [nM] |
| --- | --- | --- | --- | --- | --- |
| C[C@H]1Nc2ccc3ncc(n3n2)-c2cc(ncn2)COc2ccccc21 [Example I-26, (R)-(E)-6-methyl-4-oxa-7-aza-1(3,6)-imidazo[1,2-b]pyridazina-2(4,6)-pyrimidina-5(1,2)-benzenacycloheptaphane] | < 3 | < 5 | < 100 | – | – |
| C[C@H]1Nc2ccc3ncc(n3n2)-c2cc(ccn2)CCOc2ccccc21 [Example I-28, (4R,E)-4-methyl-6-oxa-3-aza-2(3,6)-imidazo[1,2-b]pyridazina-1(2,4)-pyridina-5(1,2)-benzenacyclooctaphane] | < 3 | < 5 | < 100 | – | – |
| C[C@H]1Nc2ccc3ncc(n3n2)-c2cc(ccn2)OCc2ccc(F)cc21 [Example I-30, (R)-(E)-5^4-fluoro-6-methyl-3-oxa-7-aza-1(3,6)-imidazo[1,2-b]pyridazina-2(2,4)-pyridina-5(1,2)-benzenacycloheptaphane] | < 3 | < 5 | < 100 | – | – |
| Fc1ccc2c(c1)[C@H]1CCCN1c1ccc3ncc(n3n1)-c1cc(ccn1)CO2 [Example I-49, (14bR,E)-13-fluoro-14b,15,16,17-tetrahydro-9H-1,19-etheno-4,8-(metheno)benzo[b]imidazo[1,5-h]pyrrolo[2,1-d][1]oxa[5,7,8,11]tetraazacyclopentadecine] | < 3 | < 5 | < 100 | – | – |
| Fc1ccc2c(c1)[C@H]1CCCN1c1ccc3ncc(n3n1)-c1cc(ncn1)CCO2 [Example I-69, (3^2R,E)-4^5-fluoro-5-oxa-2(3,6)-imidazo[1,2-b]pyridazina-1(4,6)-pyrimidina-3(1,2)-pyrrolidina-4(1,2)-benzenacycloheptaphane] | < 3 | < 5 | < 100 | – | – |
| Fc1cnc2c(c1)[C@H]1C[C@H](F)CN1c1ccc3ncc(n3n1)-c1nccc(n1)CCO2 [Example I-88, (3^2R,3^4S,E)-3^4,4^5-difluoro-5-oxa-2(3,6)-imidazo[1,2-b]pyridazina-1(2,4)-pyrimidina-4(3,2)-pyridina-3(1,2)-pyrrolidinacycloheptaphane] | < 3 | < 5 | 10.1 | 1.7 | 0.12 |
| C[C@H]1Nc2ccc3ncc(n3n2)-c2cc(cnn2)CCOc2ncc(F)cc21 [Example I-89, (4R,E)-5^5-fluoro-4-methyl-6-oxa-3-aza-2(3,6)-imidazo[1,2-b]pyridazina-1(3,5)-pyridazina-5(3,2)-pyridinacyclooctaphane] | < 3 | < 5 | < 100 | – | – |
| C[C@H]1Cc2ccnc(n2)-c2cnc3ccc(nn23)N2CCC[C@@H]2c2cc(F)cnc2O1 [Example I-95, (32R,6S,E)-4-fluoro-6-methyl-5-oxa-2(3,6)-imidazo[1,2-b]pyridazina-1(2,4)-pyrimidina-4(3,2)-pyridina-3(1,2)-pyrrolidinacycloheptaphane] | < 3 | < 5 | < 100 | – | – |
| C[C@@H]1Cc2cc(ncn2)-c2cnc3ccc(nn23)N2CCC[C@@H]2c2cc(F)ccc2O1 [Example I-97, (3^2R,6R,E)-4^5-fluoro-6-methyl-5-oxa-2(3,6)-imidazo[1,2-b]pyridazina-1(4,6)-pyrimidina-3(1,2)-pyrrolidina-4(1,2)-benzenacycloheptaphane] | < 3 | < 5 | < 100 | – | – |
| C[C@@H]1Cc2cc(ncn2)-c2cnc3ccc(nn23)N2C[C@@H](F)C[C@@H]2c2cc(F)ccc2O1 [Example I-98, (3^2R,3^4S,6R,E)-3^4,4^5-difluoro-6-methyl-5-oxa-2(3,6)-imidazo[1,2-b]pyridazina-1(4,6)-pyrimidina-3(1,2)-pyrrolidina-4(1,2)-benzenacycloheptaphane] | < 3 | < 5 | 16.3 | 1.5 | 0.22 |
| (R)-(E)-4-methyl-6-oxa-3-aza-2(3,6)-imidazo[1,2-b]pyridazina-1(4,6)-pyrimidina-5(1,2)-benzenacyclooctaphane [Example I-32] | < 3 | < 5 | < 100 | – | – |
